In patent US5436260A, “Angiotensin II receptor antagonists” (Warner-Lambert Company, priority 1994, dated 1995):
Counter-ions that a name gives are not always drawn.

Target: T1, AT1 receptor (Rattus norvegicus, UniProt P25095)
T1 construct: rat liver membranes; from tissue; host or cells: rat liver membranes
T1 sequence (P25095 1-359): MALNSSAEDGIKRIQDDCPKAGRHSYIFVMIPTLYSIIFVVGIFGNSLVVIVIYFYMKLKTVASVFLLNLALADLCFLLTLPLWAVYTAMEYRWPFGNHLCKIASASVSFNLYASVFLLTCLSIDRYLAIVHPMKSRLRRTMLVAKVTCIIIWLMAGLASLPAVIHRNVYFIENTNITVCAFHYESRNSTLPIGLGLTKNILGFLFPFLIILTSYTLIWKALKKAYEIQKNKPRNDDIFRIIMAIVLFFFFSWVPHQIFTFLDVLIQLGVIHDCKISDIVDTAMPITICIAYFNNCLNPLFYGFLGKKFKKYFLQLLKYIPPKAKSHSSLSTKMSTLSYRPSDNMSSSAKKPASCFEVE
Test: [^3 H]angiotensin II binding to rat liver membranes (AT1 test)
Details: inhibition of [^3 H]angiotensin II binding
Procedure: The compounds of Formula I or Ia are antagonists of angiotensin II. Dudley, D. T., et al, Molecular Pharmacology 1990;38:370-377 reported the existence of 2 subclasses of angiotensin II binding sites in rabbit adrenal gland and uterus and in the rat liver which differ in their tissue distribution and affinity for various peptide and nonpeptide ligands. Thus, the compounds of Formula I or Ia were tested for their ability to inhibit [^3 H]angiotensin II binding to rat liver membranes (AT1 test) according to the methods described by Dudley, D. T., et al, Molecular Pharmacology 1990;38:370-7. […] It is well established that compounds which antagonize the effect of angiotensin II at the AT1 receptor have value for treatment of hypertension and heart failure.

IC50 | SMILES
9.4 nM | CCCCc1ncc(/C=C2\C(=O)NC(=O)N2CCC(C)C)n1Cc1ccc(C(=O)O)cc1 [Example 2a]
8.8 nM | CCCCc1ncc(/C=C2/C(=O)NC(=O)N2CCC(C)C)n1Cc1ccc(C(=O)O)cc1 [Example 2b]
172 nM | CCCCc1ncc(/C=C2\C(=O)NC(=O)N2C)n1Cc1ccc(C(=O)O)cc1 [Example 3a, (E)-4-[[2-Butyl-5-[(2,5-dioxo-3-methyl-4-imidazolidinylidene)methyl]-1H-imidazol-1-yl]methyl]benzoic acid]
83.8 nM | CCCCc1ncc(/C=C2/C(=O)NC(=O)N2C)n1Cc1ccc(C(=O)O)cc1 [Example 3b, (Z)-4-[[2-Butyl-5-[(2,5-dioxo-3-methyl-4-imidazolidinylidene)methyl]-1H-imidazol-1-yl]methyl]benzoic acid]
4.17 nM | CCCCc1ncc(/C=C2/C(=O)NC(=O)N2Cc2ccccc2)n1Cc1ccc(C(=O)O)cc1 [Example 4b]
643 nM | CCCCc1ncc(/C=C2\C(=O)NC(=O)N2c2ccccc2)n1Cc1ccc(C(=O)O)cc1 [Example 5, (E)-4-[[2-Butyl-5-[(2,5-dioxo-3-phenyl-4-imidazol-imidazolidinylidene)methyl]-1H-imidazole-1-yl]methyl]benzoic acid]
2.97 nM | CCCCc1ncc(/C=C2\C(=O)NC(=O)N2Cc2cccs2)n1Cc1ccc(C(=O)O)cc1 [Example 6a]
1.43 nM | CCCCc1ncc(/C=C2/C(=O)NC(=O)N2Cc2cccs2)n1Cc1ccc(C(=O)O)cc1 [Example 6b]
10.9 nM | CCCCc1ncc(/C=C2\C(=O)NC(=O)N2CCCC)n1Cc1ccc(C(=O)OC)cc1 [Example 15a, (E)-4-[[2-Butyl-5-[(3-butyl-2,5-dioxo-4-imidazolidinylidene)methyl]-1H-imidazole-1-yl]methyl]benzoic acid, methyl ester]
10.3 nM | CCCCc1ncc(/C=C2/C(=O)NC(=O)N2CCCC)n1Cc1ccc(C(=O)OC)cc1 [Example 15b, (Z)-4-[[2-Butyl-5-[(3-butyl-2,5-dioxo-4-imidazolidinylidene)methyl]-1H-imidazole-1-yl]methyl]benzoic acid, methyl ester]
5.45 nM | CCCCc1ncc(/C=C2\C(=O)NC(=O)N2Cc2cccs2)n1Cc1ccc(C(=O)OC)cc1 [Example 16a, (e)-4-[]2-Butyl-5-[[2,5-dioxo-3-((2-thienyl)methyl)-4-imidazolidinylidene[methyl]-1H-imidazole-1-yl]methyl]benzoic acid, methyl ester]
6.92 nM | CCCCc1ncc(/C=C2/C(=O)NC(=O)N2Cc2cccs2)n1Cc1ccc(C(=O)OC)cc1 [Example 16b, (Z)-4-[[2-Butyl-5-[[2,5-dioxo-3-((2-thienyl)methyl)-4-imidazolidinylidene]methyl]-1H-imidazole-1-yl]methyl]benzoic acid, methyl ester]
98.3 nM | CCCCc1ncc(/C=C2\C(=O)NC(=O)N2CCCCO)n1Cc1ccc(C(=O)OC)cc1 [Example 17a]
49.5 nM | CCCCc1ncc(/C=C2/C(=O)NC(=O)N2CCCCO)n1Cc1ccc(C(=O)OC)cc1 [Example 17b, (Z)-4-[[2-Butyl-5-[[2,5-dioxo-3-(4-hydroxybutyl)-4-imidazolidinylidene]methyl]-1-H-imidazole-1-yl]methyl]benzoic acid, methyl ester]
21 nM | CCCCN1C(=O)N(C)C(=O)/C1=C\c1cnc(CCC)n1Cc1ccc(C(=O)OC)cc1 [Example 18]
3.36 nM | CCCCc1ncc(/C=C2\C(=O)NC(=O)N2Cc2ccc(Cl)cc2)n1Cc1ccc(C(=O)O)cc1 [Example 20a, E-4-[[2-butyl-5-[[3-[(4-chlorophenyl)methyl]-2,5-dioxo-4-imidazolidinylidene]methyl]-1H-imidazol-1-yl]methyl]benzoic acid]
2.47 nM | CCCCc1ncc(/C=C2/C(=O)NC(=O)N2Cc2ccc(Cl)cc2)n1Cc1ccc(C(=O)O)cc1 [Example 20b, Z-4-[[2-butyl-5-[[3-[(4-chlorophenyl)methyl]-2,5-dioxo-4-imidazolidinylidene]methyl]-1H-imidazol-1-yl]methyl]benzoic acid]
111 nM | CCCCc1ncc(/C=C2\C(=O)NC(=O)N2Cc2ccc(OC)c(OC)c2)n1Cc1ccc(C(=O)O)cc1 [Example 21a]
89.3 nM | CCCCc1ncc(/C=C2/C(=O)NC(=O)N2Cc2ccc(OC)c(OC)c2)n1Cc1ccc(C(=O)O)cc1 [Example 21b]
1.67 nM | CCCCc1ncc(/C=C2/C(=O)N(CCCC)C(=O)N2CCCC)n1Cc1ccc(C(=O)OC)cc1 [Example 22, Methyl Z-4-[[-2-butyl-5-[(1,3-dibutyl-2,5-dioxo-4-imidazolidinylidene)methyl]-1H -imidazol-1-yl]methyl]benzoate monohydrochloride]
3.39 nM | CCCCc1ncc(/C=C2/C(=O)N(CCCC)C(=O)N2Cc2cccs2)n1Cc1ccc(C(=O)OC)cc1 [Example 23, Methyl Z-4-[[2-butyl-5-[[1-butyl-2,5-dioxo-3-(2-thienylmethyl)-4-imidazolidinylidene]methyl]-1H-imidazol-1-yl]methyl]benzoate monohydrochloride]
10.3 nM | CCCCc1ncc(/C=C2\C(=O)N(CCCC)C(=O)N2Cc2cccs2)n1Cc1ccc(C(=O)OC)cc1 [Example 24, Methyl E-4-[[2-butyl-5-[[1-butyl-2,5-dioxo-3-(2-thienylmethyl)-4-imidazolidinylidene]methyl]-1H-imidazol-1-yl]methyl]benzoate monohydrochloride]
6.39 nM | CCCCc1ncc(/C=C2/C(=O)N(CCCC)C(=O)N2Cc2cccs2)n1Cc1ccc(C(=O)O)cc1 [Example 25]
2.63 nM | CCCCc1ncc(/C=C2\C(=O)NC(=O)N2Cc2cccs2)n1Cc1ccc(C2(C(=O)O)CCCC2)cc1 [Example 26a, E-1-[4-[[2-butyl-5-[[2,5-dioxo-3-(2-thienylmethyl)-4-imidazolidinylidene]methyl]-1H-imidazol-1-yl]methyl]phenyl]cyclopentanecarboxylic acid]
2.22 nM | CCCCc1ncc(/C=C2/C(=O)NC(=O)N2Cc2cccs2)n1Cc1ccc(C2(C(=O)O)CCCC2)cc1 [Example 26b, Z-1-[4-[[2-butyl-5-[[2,5-dioxo-3-(2-thienylmethyl)-4-imidazolidinylidene]methyl]-1H-imidazol-1-yl]methyl]phenyl]cyclopentanecarboxylic acid]
> 1000 nM | CCCCc1ncc(C(O)C2C(=O)NC(=O)N2CCCC)n1Cc1ccc(C(=O)OC)cc1 (stereo not shown) [Example 29, Methyl 4-[[2-butyl-5-[(3-butyl-2,5-dioxo-4-imidazolidinyl)hydroxymethyl]-1H-imidazol-1-yl]methyl]benzoate]
178 nM | CCCCc1ncc(/C=C2\NC(=O)N(CCCC)C2=O)n1Cc1ccc(C(=O)OC)cc1 [Example 32a, Methyl Z-4-[[2-butyl-5-[(1-butyl-2,5-dioxo-4-imidazolidinylidene)methyl]-1H-imidazol-1-yl]methyl]benzoate monohydrochloride]
1170 nM | CCCCc1ncc(/C=C2/NC(=O)N(CCCC)C2=O)n1Cc1ccc(C(=O)OC)cc1 [Example 32b, Methyl E-4-[[2-butyl-5-[(1-butyl-2,5-dioxo-4-imidazolidinylidene)methyl]-1H-imidazol-1-yl]methyl]benzoate]
